In PMC12514245, “Impaired migration and lung invasion of human melanoma by a novel small molecule targeting the transmembrane domain of death receptor p75^NTR” (EMBO Molecular Medicine, 2025):
“Also recorded” adds a separate entry of the source.

Legend:
A875 shp75 cells = assay: Wound healing cell motility assay, A875 shp75; type: cell-based, human
Protocol: For wound healing assay, cells were grown until confluency and subjected to a wound across the cell mono-layer. Cells were then incubated with serum-free media either with DMSO or a small molecule (with or without 5 µM Q_VD_poH) and imaged at specific time-points. Cell migration is reflected as fold change in wound area over time.

[1] = molecular target: TMD of TNF receptor 2 (TNFR2) (Homo sapiens, UniProt P20333); assay: 2D NMR chemical shift perturbation, TNFR2 TMD in bicelles; type: binding; settings: 4 molar excess compound
Chain of TMD of TNF receptor 2 (TNFR2) (P20333 258-290 limits assumed): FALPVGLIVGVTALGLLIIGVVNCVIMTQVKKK

With Cc1cccc(-c2cncc(Nc3ccc(Br)c(Cl)c3Cl)n2)c1C [Np75-4A22] the “Wound area (Fold)” value (A875 shp75 cells; A875 shp75, 1uM, 0 h, Mean) was 1.000 Fold, the “Wound area (Fold)” value (A875 shp75 cells; A875 shp75, 1uM, 0 h, n1) was 0.845 Fold and the “Wound area (Fold)” value (A875 shp75 cells; A875 shp75, 1uM, 0 h, n2) was 1.081 Fold. The “Wound area (Fold)” value (A875 shp75 cells; A875 shp75, 1uM, 0 h, n3) was 1.074 Fold, the “Wound area (Fold)” value (A875 shp75 cells; A875 shp75, 1uM, 3 h, Mean) was 0.931 Fold and the “Wound area (Fold)” value (A875 shp75 cells; A875 shp75, 1uM, 3 h, n1) was 0.916 Fold. For the same compound, the “Wound area (Fold)” value (A875 shp75 cells; A875 shp75, 1uM, 3 h, n2) was 0.940 Fold, the “Wound area (Fold)” value (A875 shp75 cells; A875 shp75, 1uM, 3 h, n3) was 0.936 Fold and the “Wound area (Fold)” value (A875 shp75 cells; A875 shp75, 1uM, 6 h, Mean) was 0.862 Fold. For the same compound, the “Wound area (Fold)” value (A875 shp75 cells; A875 shp75, 1uM, 6 h, n1) was 0.849 Fold, the “Wound area (Fold)” value (A875 shp75 cells; A875 shp75, 1uM, 6 h, n2) was 0.873 Fold and the “Wound area (Fold)” value (A875 shp75 cells; A875 shp75, 1uM, 6 h, n3) was 0.864 Fold. For the same compound, the “Wound area (Fold)” value (A875 shp75 cells; A875 shp75, 1uM, 9 h, Mean) was 0.807 Fold, the “Wound area (Fold)” value (A875 shp75 cells; A875 shp75, 1uM, 9 h, n1) was 0.787 Fold and the “Wound area (Fold)” value (A875 shp75 cells; A875 shp75, 1uM, 9 h, n2) was 0.829 Fold. The “Wound area (Fold)” value (A875 shp75 cells; A875 shp75, 1uM, 9 h, n3) was 0.805 Fold, the “Wound area (Fold)” value (A875 shp75 cells; A875 shp75, 1uM, 12 h, Mean) was 0.763 Fold and the “Wound area (Fold)” value (A875 shp75 cells; A875 shp75, 1uM, 12 h, n1) was 0.742 Fold. For the same compound, the “Wound area (Fold)” value (A875 shp75 cells; A875 shp75, 1uM, 12 h, n2) was 0.785 Fold, the “Wound area (Fold)” value (A875 shp75 cells; A875 shp75, 1uM, 12 h, n3) was 0.763 Fold and the “Wound area (Fold)” value (A875 shp75 cells; A875 shp75, 1uM, 15 h, Mean) was 0.718 Fold. The “Wound area (Fold)” value (A875 shp75 cells; A875 shp75, 1uM, 15 h, n1) was 0.696 Fold, the “Wound area (Fold)” value (A875 shp75 cells; A875 shp75, 1uM, 15 h, n2) was 0.752 Fold and the “Wound area (Fold)” value (A875 shp75 cells; A875 shp75, 1uM, 15 h, n3) was 0.705 Fold. For the same compound, the “Wound area (Fold)” value (A875 shp75 cells; A875 shp75, 1uM, 18 h, Mean) was 0.698 Fold, the “Wound area (Fold)” value (A875 shp75 cells; A875 shp75, 1uM, 18 h, n1) was 0.664 Fold and the “Wound area (Fold)” value (A875 shp75 cells; A875 shp75, 1uM, 18 h, n2) was 0.709 Fold. The “Wound area (Fold)” value (A875 shp75 cells; A875 shp75, 1uM, 18 h, n3) was 0.721 Fold, the “Wound area (Fold)” value (A875 shp75 cells; A875 shp75, 1uM, 21 h, Mean) was 0.669 Fold and the “Wound area (Fold)” value (A875 shp75 cells; A875 shp75, 1uM, 21 h, n1) was 0.640 Fold. For the same compound, the “Wound area (Fold)” value (A875 shp75 cells; A875 shp75, 1uM, 21 h, n2) was 0.695 Fold, the “Wound area (Fold)” value (A875 shp75 cells; A875 shp75, 1uM, 21 h, n3) was 0.673 Fold and the “Wound area (Fold)” value (A875 shp75 cells; A875 shp75, 1uM, 24 h, Mean) was 0.638 Fold. The “Wound area (Fold)” value (A875 shp75 cells; A875 shp75, 1uM, 24 h, n1) was 0.601 Fold, the “Wound area (Fold)” value (A875 shp75 cells; A875 shp75, 1uM, 24 h, n2) was 0.671 Fold and the “Wound area (Fold)” value (A875 shp75 cells; A875 shp75, 1uM, 24 h, n3) was 0.643 Fold. The “Wound area (Fold)” value (A875 shp75 cells; A875 shp75, 2uM, 0 h, Mean) was 1.000 Fold, the “Wound area (Fold)” value (A875 shp75 cells; A875 shp75, 2uM, 0 h, n1) was 0.9754 Fold and the “Wound area (Fold)” value (A875 shp75 cells; A875 shp75, 2uM, 0 h, n2) was 1.0649 Fold. For the same compound, the “Wound area (Fold)” value (A875 shp75 cells; A875 shp75, 2uM, 0 h, n3) was 0.9597 Fold, the “Wound area (Fold)” value (A875 shp75 cells; A875 shp75, 2uM, 3 h, Mean) was 0.910 Fold and the “Wound area (Fold)” value (A875 shp75 cells; A875 shp75, 2uM, 3 h, n1) was 0.9076 Fold. For the same compound, the “Wound area (Fold)” value (A875 shp75 cells; A875 shp75, 2uM, 3 h, n2) was 0.9176 Fold, the “Wound area (Fold)” value (A875 shp75 cells; A875 shp75, 2uM, 3 h, n3) was 0.9063 Fold and the “Wound area (Fold)” value (A875 shp75 cells; A875 shp75, 2uM, 6 h, Mean) was 0.853 Fold. The “Wound area (Fold)” value (A875 shp75 cells; A875 shp75, 2uM, 6 h, n1) was 0.8581 Fold, the “Wound area (Fold)” value (A875 shp75 cells; A875 shp75, 2uM, 6 h, n2) was 0.8655 Fold and the “Wound area (Fold)” value (A875 shp75 cells; A875 shp75, 2uM, 6 h, n3) was 0.836 Fold. The “Wound area (Fold)” value (A875 shp75 cells; A875 shp75, 2uM, 9 h, Mean) was 0.814 Fold, the “Wound area (Fold)” value (A875 shp75 cells; A875 shp75, 2uM, 9 h, n1) was 0.821 Fold and the “Wound area (Fold)” value (A875 shp75 cells; A875 shp75, 2uM, 9 h, n2) was 0.8359 Fold. The “Wound area (Fold)” value (A875 shp75 cells; A875 shp75, 2uM, 9 h, n3) was 0.7843 Fold, the “Wound area (Fold)” value (A875 shp75 cells; A875 shp75, 2uM, 12 h, Mean) was 0.777 Fold and the “Wound area (Fold)” value (A875 shp75 cells; A875 shp75, 2uM, 12 h, n1) was 0.789 Fold. The “Wound area (Fold)” value (A875 shp75 cells; A875 shp75, 2uM, 12 h, n2) was 0.7939 Fold, the “Wound area (Fold)” value (A875 shp75 cells; A875 shp75, 2uM, 12 h, n3) was 0.7491 Fold and the “Wound area (Fold)” value (A875 shp75 cells; A875 shp75, 2uM, 15 h, Mean) was 0.752 Fold. For the same compound, the “Wound area (Fold)” value (A875 shp75 cells; A875 shp75, 2uM, 15 h, n1) was 0.7699 Fold, the “Wound area (Fold)” value (A875 shp75 cells; A875 shp75, 2uM, 15 h, n2) was 0.7822 Fold and the “Wound area (Fold)” value (A875 shp75 cells; A875 shp75, 2uM, 15 h, n3) was 0.7049 Fold. For the same compound, the “Wound area (Fold)” value (A875 shp75 cells; A875 shp75, 2uM, 18 h, Mean) was 0.727 Fold, the “Wound area (Fold)” value (A875 shp75 cells; A875 shp75, 2uM, 18 h, n1) was 0.7451 Fold and the “Wound area (Fold)” value (A875 shp75 cells; A875 shp75, 2uM, 18 h, n2) was 0.762 Fold. For the same compound, the “Wound area (Fold)” value (A875 shp75 cells; A875 shp75, 2uM, 18 h, n3) was 0.6733 Fold, the “Wound area (Fold)” value (A875 shp75 cells; A875 shp75, 2uM, 21 h, Mean) was 0.692 Fold and the “Wound area (Fold)” value (A875 shp75 cells; A875 shp75, 2uM, 21 h, n1) was 0.7162 Fold. For the same compound, the “Wound area (Fold)” value (A875 shp75 cells; A875 shp75, 2uM, 21 h, n2) was 0.7095 Fold, the “Wound area (Fold)” value (A875 shp75 cells; A875 shp75, 2uM, 21 h, n3) was 0.6489 Fold and the “Wound area (Fold)” value (A875 shp75 cells; A875 shp75, 2uM, 24 h, Mean) was 0.665 Fold. The “Wound area (Fold)” value (A875 shp75 cells; A875 shp75, 2uM, 24 h, n1) was 0.7012 Fold, the “Wound area (Fold)” value (A875 shp75 cells; A875 shp75, 2uM, 24 h, n2) was 0.6688 Fold and the “Wound area (Fold)” value (A875 shp75 cells; A875 shp75, 2uM, 24 h, n3) was 0.6256 Fold. For the same compound, the “chemical shift perturbations, TNFR2 TMD” value [1] was “essentially no interaction; also recorded: no or minimal chemical shift perturbations”.
